Some test systems named below: SK-MEL-5 melanoma; NCI-H460 lung; EKVX NSCLC; OVCAR-8 ovarian; HS 578T breast; SF-268 CNS; TK-10 renal; SNB-19 CNS; K-562 leukemia; HT29 colon.
Common to all, as to assay: growth of human tumour cells (NCI), 48 h

The structures appear in SMILES notation.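 All cell lines were grown in 96-well plates and treated with compound for 48 hours. At the TGI there is no net growth.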

For `NC(=O)N/N=C1\CC2C3CC4C2C4C13` (stereo not given), the TGI with SK-MEL-5 melanoma, with NCI-H460 lung, in the assay on EKVX NSCLC, in the assay on OVCAR-8 ovarian, in the assay with HS 578T breast and in the assay with SF-268 CNS was above 100 µM throughout. The TGI with TK-10 renal, in the assay with SNB-19 CNS, in the assay with K-562 leukemia and with HT29 colon was above 100 µM in each case.
As to `COC(=O)c1cc(C#N)[nH]c1-c1cc(Br)cs1`, the TGI in the assay on SK-MEL-5 melanoma stood at 21.2 µM; with NCI-H460 lung, 54.5 µM; in the assay with EKVX NSCLC it was 47.6 µM; in the assay on OVCAR-8 ovarian, 43.7 µM; in the assay with HS 578T breast, 45.4 µM; in the assay with SF-268 CNS, 51 µM. The TGI in the assay on TK-10 renal was 57.1 µM; with SNB-19 CNS, 37.3 µM; in the assay with K-562 leukemia, above 79.9 µM; in the assay on HT29 colon, 31.7 µM.
With `Nc1nn2c(=O)c3ccccc3nc2s1`, the TGI in the assay with SK-MEL-5 melanoma, in the assay on NCI-H460 lung, in the assay with EKVX NSCLC, in the assay on OVCAR-8 ovarian, with HS 578T breast and with SF-268 CNS was above 100 µM throughout. In addition, the TGI is above 100 µM in the assay on TK-10 renal, above 100 µM with SNB-19 CNS, 88.7 µM in the assay with K-562 leukemia and above 100 µM with HT29 colon.
Regarding `N#Cc1nc(C2CCC2)oc1N`, the TGI in the assay on SK-MEL-5 melanoma, in the assay on NCI-H460 lung, in the assay on EKVX NSCLC, in the assay with OVCAR-8 ovarian, with HS 578T breast and in the assay with SF-268 CNS was above 100 µM each time. Moreover, the TGI in the assay with TK-10 renal, with SNB-19 CNS, in the assay with K-562 leukemia and with HT29 colon was above 100 µM throughout.
For the compound `O=C1c2ccccc2NC(=S)[C@@H]2CCCN12`, the TGI in the assay on SK-MEL-5 melanoma, with NCI-H460 lung, in the assay on EKVX NSCLC, with OVCAR-8 ovarian, in the assay with HS 578T breast and in the assay with SF-268 CNS was above 100 µM throughout. Also, the TGI in the assay with TK-10 renal, in the assay on SNB-19 CNS, with K-562 leukemia and in the assay with HT29 colon was above 100 µM in each case.
With `COc1c(O)c2c(=O)cc(OC)c3c4c(OC)cc(=O)c5c(O)c(OC)c6c(c(c1C(C(C)O)C6C(C)O)c23)c54` (stereo not given), the TGI with SK-MEL-5 melanoma was 1.15 µM; in the assay with NCI-H460 lung, 1.18 µM; in the assay with EKVX NSCLC, 3.56 µM; in the assay on OVCAR-8 ovarian, 2.48 µM; in the assay with HS 578T breast, 6.07 µM; in the assay on SF-268 CNS it was 15 µM. Also, the TGI with TK-10 renal was 4.66 µM; in the assay with SNB-19 CNS, 6.22 µM; in the assay on K-562 leukemia, 1.66 µM; in the assay on HT29 colon, 3.71 µM.
On to `COc1nc(C#CC(C)(C)C)nc(OC)n1`, for which the TGI was 39 µM in the assay with SK-MEL-5 melanoma; above 100 µM in the assay on NCI-H460 lung; above 100 µM with EKVX NSCLC; 37.6 µM with OVCAR-8 ovarian; 91.8 µM with HS 578T breast; 78.6 µM in the assay with SF-268 CNS. Besides, the TGI is 57.8 µM in the assay with TK-10 renal, above 100 µM with SNB-19 CNS, above 100 µM in the assay with K-562 leukemia and above 100 µM in the assay on HT29 colon.
`CN(C)CC1CCC(CN(C)C)C1=O` (stereo not given): the TGI with SK-MEL-5 melanoma was 15.9 µM; in the assay with NCI-H460 lung, 45.6 µM; in the assay on EKVX NSCLC, 11 µM; in the assay with OVCAR-8 ovarian, 10.3 µM; in the assay on HS 578T breast, 10.2 µM; in the assay with SF-268 CNS it was 42.4 µM. In addition, the TGI with TK-10 renal was 28.2 µM; with SNB-19 CNS, above 100 µM; in the assay on K-562 leukemia it was above 20.3 µM; in the assay on HT29 colon, 16.2 µM.
For `COc1ccc(CC2COc3cc(O)cc(O)c3C2=O)cc1O` (stereo not given), the TGI with SK-MEL-5 melanoma, with NCI-H460 lung, in the assay on EKVX NSCLC, with OVCAR-8 ovarian, with HS 578T breast and with SF-268 CNS was above 100 µM each time. In addition, the TGI is above 100 µM with TK-10 renal, above 100 µM in the assay with SNB-19 CNS, above 100 µM in the assay with K-562 leukemia and 27.5 µM with HT29 colon.
On to `COc1cc2c(cc1OC)-c1cc3ccccc3c(=O)n1CC2`, for which the TGI in the assay with SK-MEL-5 melanoma was 23.5 µM; with NCI-H460 lung, 67.5 µM; with EKVX NSCLC, above 100 µM; in the assay on OVCAR-8 ovarian it was above 100 µM; in the assay with HS 578T breast, 50.2 µM; in the assay on SF-268 CNS, above 100 µM. Moreover, the TGI in the assay on TK-10 renal was 50.7 µM; in the assay with SNB-19 CNS, above 100 µM; with K-562 leukemia, above 100 µM; in the assay with HT29 colon it was 98.9 µM.
As for `O=c1[nH]c(=O)n(C2CC(O)C(CO)O2)cc1OCc1ccccc1` (stereo not given), the TGI in the assay on SK-MEL-5 melanoma, in the assay with NCI-H460 lung, in the assay with EKVX NSCLC, in the assay with OVCAR-8 ovarian, in the assay with HS 578T breast and with SF-268 CNS was above 100 µM each time. In addition, the TGI with TK-10 renal, with SNB-19 CNS, with K-562 leukemia and with HT29 colon was above 100 µM each time.
On to `CCOC(=O)/C=C(\C(=O)OCC)n1ccc(=O)n(Cc2cn(COCCOC(C)=O)nn2)c1=O`, for which the TGI in the assay with SK-MEL-5 melanoma is 47.1 µM; in the assay with NCI-H460 lung, above 52.5 µM; in the assay with EKVX NSCLC, 38.9 µM; in the assay with OVCAR-8 ovarian it was 31.1 µM; in the assay with HS 578T breast it was 63.6 µM; in the assay with SF-268 CNS, above 57.6 µM. Besides, the TGI was 29.2 µM in the assay with TK-10 renal, above 89.5 µM with SNB-19 CNS, above 100 µM in the assay on K-562 leukemia and 30.8 µM in the assay with HT29 colon.
In the case of `O=c1cc(-c2ccccc2)oc2c(-c3cc(Cl)cc4c(=O)cc(-c5ccccc5)oc34)cc(Cl)cc12`, the TGI with SK-MEL-5 melanoma is 32.8 µM; with NCI-H460 lung it was above 100 µM; in the assay with EKVX NSCLC, above 100 µM; in the assay with OVCAR-8 ovarian, above 100 µM; in the assay with HS 578T breast, above 100 µM; with SF-268 CNS, above 100 µM. Also, the TGI in the assay with TK-10 renal, with SNB-19 CNS, with K-562 leukemia and in the assay on HT29 colon was above 100 µM in each case.
Take `CCOP(=O)(/C=C\n1ccc(N)nc1=O)OCC`: the TGI in the assay on SK-MEL-5 melanoma, in the assay on NCI-H460 lung, with EKVX NSCLC, with OVCAR-8 ovarian, with HS 578T breast and with SF-268 CNS was above 100 µM each time. Also, the TGI in the assay with TK-10 renal, in the assay on SNB-19 CNS, in the assay with K-562 leukemia and with HT29 colon was above 100 µM in each case.

These data come from PubChem BioAssay (NCI).
